PubChem BioAssay AID330 (DTP/NCI, 2004)
Several values for one entry are separate records, joined by “and”; a condition that tells them apart may be missing. Identical values can stand only once. Inconclusive results and toxic doses are left out.

Test system: P388 leukemia ip, CD2F1 mice, survival T/C
Test: NCI In Vivo Anticancer Drug Screen. Data for tumor model P388 Leukemia (intraperitoneal) in CD2F1 (CDF1) mice
Details: endpoint: median survival time, higher = longer survival
How it was run: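 Mice carrying the transplanted tumor received test compound or vehicle. Survival was recorded in each group, and the value is the treated-group measurement divided by that of the vehicle-treated control group.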

[1] = dose: 25.0 mg/kg/injection, schedule: Q01DX005 (ip), vehicle: Klucel (hydroxypropylcellulose) (HPC)
[2] = dose: 100.0 mg/kg/injection, schedule: Q01DX001 (ip), vehicle: Klucel (hydroxypropylcellulose) (HPC)
[3] = dose: 200.0 mg/kg/injection, schedule: Q01DX001 (ip), vehicle: Klucel (hydroxypropylcellulose) (HPC)
[4] = dose: 400.0 mg/kg/injection, schedule: Q01DX001 (ip), vehicle: Klucel (hydroxypropylcellulose) (HPC)
[5] = dose: 100.0 mg/kg/injection, schedule: Q04DX002 (ip), vehicle: saline with Tween-80
[6] = dose: 200.0 mg/kg/injection, schedule: Q04DX002 (ip), vehicle: saline with Tween-80
[7] = dose: 50.0 mg/kg/injection, schedule: Q01DX005 (ip), vehicle: Klucel (hydroxypropylcellulose) (HPC)
[8] = dose: 100.0 mg/kg/injection, schedule: Q01DX005 (ip), vehicle: Klucel (hydroxypropylcellulose) (HPC)
[9] = dose: 100.0 mg/kg/injection, schedule: Q04DX002 (ip), vehicle: Klucel (hydroxypropylcellulose) (HPC)
[10] = dose: 200.0 mg/kg/injection, schedule: Q04DX002 (ip), vehicle: Klucel (hydroxypropylcellulose) (HPC)
[11] = dose: 50.0 mg/kg/injection, schedule: Q01DX009 (ip), vehicle: Klucel (hydroxypropylcellulose) (HPC)
[12] = dose: 100.0 mg/kg/injection, schedule: Q01DX009 (ip), vehicle: Klucel (hydroxypropylcellulose) (HPC)
[13] = dose: 200.0 mg/kg/injection, schedule: Q01DX009 (ip), vehicle: Klucel (hydroxypropylcellulose) (HPC)
[14] = dose: 50.0 mg/kg/injection, schedule: Q01DX009 (ip), vehicle: saline with Tween-80
[15] = dose: 100.0 mg/kg/injection, schedule: Q01DX009 (ip), vehicle: saline with Tween-80
[16] = dose: 200.0 mg/kg/injection, schedule: Q01DX005 (ip), vehicle: Klucel (hydroxypropylcellulose) (HPC)

CN(/N=C/c1ccccc1)c1nnnn1-c1ccccc1
T/C (dose: 50.0 mg/kg/injection, schedule: Q01DX005 (ip), vehicle: saline + Tween-80 + alcohol): 103 % of control
T/C (dose: 100.0 mg/kg/injection, schedule: Q01DX005 (ip), vehicle: saline + Tween-80 + alcohol): 97 % of control
T/C (dose: 200.0 mg/kg/injection, schedule: Q01DX005 (ip), vehicle: saline + Tween-80 + alcohol): 89 % of control

CN(C)c1ccc(C(=C2C=CC(=Nc3ccccc3)c3ccccc32)c2ccc(N(C)C)cc2)cc1
T/C (dose: 3.12 mg/kg/injection, schedule: Q01DX005 (ip), vehicle: Klucel (hydroxypropylcellulose) (HPC)): 100 % of control and 101 % of control
T/C (dose: 6.25 mg/kg/injection, schedule: Q01DX005 (ip), vehicle: Klucel (hydroxypropylcellulose) (HPC)): 100 % of control and 104 % of control and 112 % of control
T/C (dose: 12.5 mg/kg/injection, schedule: Q01DX005 (ip), vehicle: Klucel (hydroxypropylcellulose) (HPC)): 111 % of control and 114 % of control and 120 % of control
T/C [1]: 115 % of control and 118 % of control

CC(=O)Oc1c(C)c(C)c2c(c1C)C(I)CC(C)(CCC(C)CCC(C)CCC(C)C)O2 (stereo not drawn)
T/C (dose: 12.5 mg/kg/injection, schedule: Q01DX009 (ip), vehicle: saline + Tween-80 + alcohol): 103 % of control
T/C (dose: 25.0 mg/kg/injection, schedule: Q01DX009 (ip), vehicle: saline + Tween-80 + alcohol): 113 % of control
T/C (dose: 50.0 mg/kg/injection, schedule: Q01DX009 (ip), vehicle: saline + Tween-80 + alcohol): 107 % of control
T/C (dose: 100.0 mg/kg/injection, schedule: Q01DX009 (ip), vehicle: saline + Tween-80 + alcohol): 106 % of control
T/C (dose: 200.0 mg/kg/injection, schedule: Q01DX009 (ip), vehicle: saline + Tween-80 + alcohol): 119 % of control
T/C (dose: 400.0 mg/kg/injection, schedule: Q01DX009 (ip), vehicle: saline + Tween-80 + alcohol): 87 % of control

COC(=O)CC1=NNC(=O)C1
T/C [2]: 93 % of control
T/C [3]: 99 % of control
T/C [4]: 100 % of control

Brc1ccc2[nH]c3nc(N/N=C/c4cccnc4)nnc3c2c1
T/C [5]: 93 % of control
T/C [6]: 91 % of control
T/C (dose: 400.0 mg/kg/injection, schedule: Q04DX002 (ip), vehicle: saline with Tween-80): 99 % of control

CCOC(=O)NCC(C)(C)CNC(=O)OCC
T/C (dose: 3.13 mg/kg/injection, schedule: Q01DX009 (ip), vehicle: saline): 100 % of control
T/C (dose: 6.25 mg/kg/injection, schedule: Q01DX009 (ip), vehicle: saline): 105 % of control
T/C (dose: 12.5 mg/kg/injection, schedule: Q01DX009 (ip), vehicle: saline): 105 % of control
T/C (dose: 25.0 mg/kg/injection, schedule: Q01DX009 (ip), vehicle: saline): 103 % of control

COc1ccc(C[n+]2ccccc2C#N)cc1OC
T/C [7]: 103 % of control
T/C [8]: 107 % of control

C=NC1C=CCC=C1
T/C [5]: 112 % of control
T/C [6]: 91 % of control

COc1ccc(C2CC(=O)c3c(O)cc(OC4OC(COC5OC(C)C(O)C(O)C5O)C(O)C(O)C4O)cc3O2)cc1O (stereo not drawn)
T/C (dose: 50.0 mg/kg/injection, schedule: Q01DX005 (ip), vehicle: saline with Tween-80): 94 % of control
T/C (dose: 100.0 mg/kg/injection, schedule: Q01DX005 (ip), vehicle: saline with Tween-80): 100 % of control
T/C (dose: 200.0 mg/kg/injection, schedule: Q01DX005 (ip), vehicle: saline with Tween-80): 92 % of control

Cc1nc(C)c2c(C)[nH]c(-c3ccccc3)c2n1
T/C (dose: 25.0 mg/kg/injection, schedule: Q04DX002 (ip), vehicle: Klucel (hydroxypropylcellulose) (HPC)): 102 % of control
T/C (dose: 50.0 mg/kg/injection, schedule: Q04DX002 (ip), vehicle: Klucel (hydroxypropylcellulose) (HPC)): 101 % of control
T/C [9]: 108 % of control
T/C [10]: 104 % of control

O=C(Nc1ccc(S(=O)(=O)F)cc1)c1ccc2ccccc2c1O
T/C [11]: 103 % of control
T/C [12]: 94 % of control
T/C [13]: 91 % of control

CN(C)Cc1c(N=Nc2cccc3c(N=Nc4[nH]c5ccccc5c4CN(C)C)cccc23)[nH]c2ccccc12
T/C [14]: 110 % of control
T/C [15]: 108 % of control
T/C (dose: 200.0 mg/kg/injection, schedule: Q01DX009 (ip), vehicle: saline with Tween-80): 89 % of control

CC(C)(C)c1ccc2c(c1)C1=NC2=NC2=NC(=NC3=NC(=NC4=NC(=N1)c1ccc(C(C)(C)C)cc14)c1ccc(C(C)(C)C)cc13)c1ccc(C(C)(C)C)cc12
T/C [2]: 98 % of control
T/C [3]: 95 % of control
T/C [4]: 91 % of control

N#COc1ccc(-c2ccccc2)cc1
T/C (dose: 60.0 mg/kg/injection, schedule: Q01DX005 (ip), vehicle: saline with Tween-80): 90 % of control
T/C (dose: 120.0 mg/kg/injection, schedule: Q01DX005 (ip), vehicle: saline with Tween-80): 87 % of control
T/C (dose: 240.0 mg/kg/injection, schedule: Q01DX005 (ip), vehicle: saline with Tween-80): 86 % of control and 90 % of control

N#CS.N=C=S.O=N[O-].[Co+3].[NH2-].[NH2-].[NH2-].[NH2-]
T/C (dose: 25.0 mg/kg/injection, schedule: Q01DX009 (ip), vehicle: saline with Tween-80): 102 % of control
T/C [14]: 89 % of control
T/C [15]: 108 % of control

CCCC/C=C\CCCCCCCCCC1=C(O)C(=O)C=C(OC)C1=O
T/C (dose: 25.5 mg/kg/injection, schedule: Q01DX005 (ip), vehicle: Klucel (hydroxypropylcellulose) (HPC)): 116 % of control

Nc1ncnc2c1ncn2C1OC(COC2C(O)C(OC3OC(CO)C(O)C(O)C3N)C(O)C(OS(=O)(=O)O)C2OC(=O)[C@@H](N)CO)C(O)C1O (stereo partly drawn)
T/C (dose: 0.15 mg/kg/injection, schedule: Q01DX005 (ip), vehicle: Klucel (hydroxypropylcellulose) (HPC)): 101 % of control
T/C (dose: 0.31 mg/kg/injection, schedule: Q01DX005 (ip), vehicle: Klucel (hydroxypropylcellulose) (HPC)): 98 % of control
T/C (dose: 0.62 mg/kg/injection, schedule: Q01DX005 (ip), vehicle: Klucel (hydroxypropylcellulose) (HPC)): 100 % of control
T/C (dose: 1.25 mg/kg/injection, schedule: Q01DX005 (ip), vehicle: Klucel (hydroxypropylcellulose) (HPC)): 100 % of control and 94 % of control

COc1cc(/C=C/c2ccncc2)ccc1OC(C)=O
T/C [1]: 100 % of control
T/C [7]: 100 % of control
T/C [8]: 101 % of control
T/C [16]: 100 % of control

CC(C)c1ccccc1S(=O)c1ccccc1C(C)(C)O (stereo not drawn)
T/C [11]: 98 % of control
T/C [12]: 102 % of control
T/C [13]: 95 % of control

COc1cc([C@@H]2c3cc4c(cc3[C@H](O)[C@H]3COC(=O)[C@@H]23)OCO4)cc(OC)c1OC
T/C (dose: 7.5 mg/kg/injection, schedule: Q01DX010 (ip), vehicle: saline): 109 % of control
T/C (dose: 25.0 mg/kg/injection, schedule: Q04DX003 (ip), vehicle: saline sonified): 95 % of control
T/C (dose: 30.0 mg/kg/injection, schedule: Q01DX010 (ip), vehicle: saline): 172 % of control
T/C (dose: 50.0 mg/kg/injection, schedule: Q04DX003 (ip), vehicle: saline sonified): 112 % of control
T/C (dose: 100.0 mg/kg/injection, schedule: Q04DX003 (ip), vehicle: saline sonified): 154 % of control

CC1(C)CC(OP(=O)(OC2CC(C)(C)N(O)C(C)(C)C2)OC2CC(C)(C)N(O)C(C)(C)C2)CC(C)(C)N1O
T/C [9]: 92 % of control
T/C [10]: 99 % of control
T/C (dose: 400.0 mg/kg/injection, schedule: Q04DX002 (ip), vehicle: Klucel (hydroxypropylcellulose) (HPC)): 104 % of control

NC(=O)COC1OC(CO)C(O)C(O)C1O (stereo not drawn)
T/C [7]: 97 % of control
T/C [8]: 100 % of control
T/C [16]: 107 % of control

C1CCC2[N-]CC3CCCCC3[N-]CC3CCCCC3[N-]CC3CCCCC3[N-]CC2C1.[Cu+2].[O-][Cl+3]([O-])([O-])O (stereo not drawn)
T/C (dose: 0.78 mg/kg/injection, schedule: Q01DX009 (ip), vehicle: Klucel (hydroxypropylcellulose) (HPC)): 117 % of control
T/C (dose: 6.25 mg/kg/injection, schedule: Q01DX009 (ip), vehicle: saline with Tween-80): 152 % of control
T/C (dose: 8.0 mg/kg/injection, schedule: Q01DX009 (ip), vehicle: saline with Tween-80): 154 % of control
T/C (dose: 12.5 mg/kg/injection, schedule: Q01DX009 (ip), vehicle: Klucel (hydroxypropylcellulose) (HPC)): 87 % of control
T/C (dose: 12.5 mg/kg/injection, schedule: Q01DX009 (ip), vehicle: saline with Tween-80): 158 % of control
T/C (dose: 25.0 mg/kg/injection, schedule: Q01DX009 (ip), vehicle: Klucel (hydroxypropylcellulose) (HPC)): 87 % of control
